The source of these data is patent US10450301B2, “Apoptosis signal-regulating kinase 1 inhibitors and methods of use thereof” (ENANTA PHARMACEUTICALS, INC., priority 2017, dated 2019).

The target in this assay is ASK1 (Homo sapiens (Human), UniProt Q99683). Description: HTRF KinEASE Assay (TR-FRET, STK3 peptide substrate), inhibition of ASK1. As to conditions: 5 nM ASK1 kinase, 1 μM STK3 peptide substrate, 100 μM ATP, 3 hours; compound 0 to 10 μM. It is filed as biochemical. Put shortly:
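TR-FRET HTRF KinEASE-STK format with an STK3 biotinylated peptide substrate. Signal tracks phosphorylation; IC50 from curve fitting.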

Chain of ASK1 (Q99683 whole entry): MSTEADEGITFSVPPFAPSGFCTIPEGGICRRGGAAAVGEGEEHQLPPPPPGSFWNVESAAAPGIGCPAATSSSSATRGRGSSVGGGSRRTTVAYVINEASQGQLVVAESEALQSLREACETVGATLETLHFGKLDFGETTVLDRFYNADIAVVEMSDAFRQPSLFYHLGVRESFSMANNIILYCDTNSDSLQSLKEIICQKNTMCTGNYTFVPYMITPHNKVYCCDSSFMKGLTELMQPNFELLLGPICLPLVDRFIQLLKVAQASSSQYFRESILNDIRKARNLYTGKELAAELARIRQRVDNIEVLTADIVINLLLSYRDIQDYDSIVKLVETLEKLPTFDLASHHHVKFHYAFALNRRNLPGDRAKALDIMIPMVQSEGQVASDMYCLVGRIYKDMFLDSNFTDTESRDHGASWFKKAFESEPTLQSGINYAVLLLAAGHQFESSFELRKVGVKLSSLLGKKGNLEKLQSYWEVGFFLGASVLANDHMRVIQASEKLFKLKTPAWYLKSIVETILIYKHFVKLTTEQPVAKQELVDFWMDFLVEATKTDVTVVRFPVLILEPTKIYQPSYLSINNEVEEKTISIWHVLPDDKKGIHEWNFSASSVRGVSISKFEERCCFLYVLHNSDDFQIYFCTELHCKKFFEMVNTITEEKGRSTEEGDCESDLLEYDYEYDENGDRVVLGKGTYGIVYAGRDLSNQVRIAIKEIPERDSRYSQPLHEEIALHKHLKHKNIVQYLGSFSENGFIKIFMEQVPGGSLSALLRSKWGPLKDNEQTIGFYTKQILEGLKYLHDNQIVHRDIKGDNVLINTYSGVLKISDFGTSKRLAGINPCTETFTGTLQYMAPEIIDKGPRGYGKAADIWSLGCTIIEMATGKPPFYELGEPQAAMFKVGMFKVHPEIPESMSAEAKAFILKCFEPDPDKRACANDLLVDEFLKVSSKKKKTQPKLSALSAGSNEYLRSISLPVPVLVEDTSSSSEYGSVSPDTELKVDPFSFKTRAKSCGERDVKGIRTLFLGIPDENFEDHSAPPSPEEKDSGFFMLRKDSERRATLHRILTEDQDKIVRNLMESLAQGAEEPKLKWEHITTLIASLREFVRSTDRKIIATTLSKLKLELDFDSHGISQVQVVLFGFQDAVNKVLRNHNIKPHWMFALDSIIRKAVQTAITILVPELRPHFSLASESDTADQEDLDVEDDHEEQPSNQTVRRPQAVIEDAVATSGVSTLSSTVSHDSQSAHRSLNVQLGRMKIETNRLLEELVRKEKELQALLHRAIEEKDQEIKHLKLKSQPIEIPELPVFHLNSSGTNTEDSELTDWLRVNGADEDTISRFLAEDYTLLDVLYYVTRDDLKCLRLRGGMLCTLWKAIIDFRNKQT

With `CC(C)n1cnnc1-c1cccc(NC(=O)c2ccc3c(c2)CN(C(=O)OCc2ccccc2)CC3)n1` [Example 67, benzyl 7-((6-(4-isopropyl-4H-1,2,4-triazol-3-yl)pyridin-2-yl)carbamoyl)-3,4-dihydroisoquinoline-2(1H)-carboxylate], the IC50 – broadly, the concentration at which inhibition is half-maximal – was in the range of 10 to 100 nM.
`CC(C)N1Cc2cc(F)c(C(=O)Nc3cccc(-c4nnnn4C(C)C)n3)cc2C1=O` [Example 176] showed an IC50 greater than 1000 nM.
The value for `CC(C)N(C)C(=O)N1CCc2cc(F)c(C(=O)Nc3cccc(-c4nnnn4C(C)C)n3)cc2C1` [Example 80] was 10 to 100 nM; that for `CC(C)n1nnnc1-c1cccc(NC(=O)c2cc3c(cc2F)CCN(C(=O)C2CCCC2)C3)n1` [Example 97] was 10 to 100 nM; that for `CC(C)n1cnnc1-c1cccc(NC(=O)c2cc3c(cc2F)CCNC3)n1` [Example 27] was 10 to 100 nM.
As to `CC(C)n1nnnc1-c1cccc(NC(=O)c2cc3c(cn2)CCN(S(=O)(=O)N(C)C)C3)n1` [Example 111], the concentration for half-maximal inhibition (IC50) is 10 to 100 nM.
The compound `CC(C)n1nnnc1-c1cccc(NC(=O)c2cc3c(cc2F)CCN(C(=O)N2CCOCC2)C3)n1` [Example 92] had an IC50 of 10 to 100 nM.
Compound `CCNC(=O)N1CCc2cc(F)c(C(=O)Nc3cccc(-c4nnnn4C(C)C)n3)cc2C1` [Example 29, N2-ethyl-6-fluoro-N7-(6-(1-isopropyl-1H-tetrazol-5-yl)pyridin-2-yl)-3,4-dihydroisoquinoline-2,7(1H)-dicarboxamide] showed a concentration for half-maximal inhibition (IC50) of 1 to 10 nM.
In the case of `CCN(C)C(=O)N1CCc2cc(F)c(C(=O)Nc3cccc(-n4nnnc4C(C)C)n3)cc2C1` [Example 101] it was greater than 1000 nM; in that of `CC(C)n1cnnc1-c1cccc(NC(=O)c2cc3c(cc2F)CCN(C(=O)NC2CCCC2)C3)n1` [Example 51], 1 to 10 nM; in that of `C[C@H](CO)n1nnnc1-c1cccc(NC(=O)c2cc3c(cn2)CCN(Cc2ccccc2)C3)n1` [Example 133], 1 to 10 nM.
For `CC(C)n1nnnc1-c1cccc(NC(=O)c2ccc3c(c2)CN(C(=O)N2CCCC2)C3)n1` [Example 11], the half-maximal inhibitory concentration (IC50) lay in the range of 100 to 1000 nM.
Compound `CC(C)n1nnnc1-c1cccc(NC(=O)c2ccc3c(c2)CN(C(=O)OCc2ccccc2)C3)n1` [Example 2] showed a concentration for half-maximal inhibition (IC50) greater than 1000 nM.
In the case of `CC(C)n1cnnc1-c1cccc(NC(=O)c2ccc3c(c2)CN(C(=O)OC(C)(C)C)CC3)n1` [Example 183a] it was greater than 1000 nM.
Compound `CCNC(=O)N1CCc2ccc(C(=O)Nc3cccc(-c4nncn4C(C)C)n3)cc2C1` [Example 63] registered a half-inhibitory concentration (IC50) of 1 to 10 nM.
In the case of `CC(C)n1cnnc1-c1cccc(NC(=O)c2cc3c(cc2F)CCN(S(=O)(=O)C2CC2)C3)n1` [Example 47] it was 1 to 10 nM.
In the case of `CC(C)CS(=O)(=O)N1CCc2cc(F)c(C(=O)Nc3cccc(-c4nncn4C(C)C)n3)cc2C1` [Example 42] it was 1 to 10 nM.
As to `CC(C)n1cnnc1-c1cccc(NC(=O)c2cc3c(cc2F)CCN(C(=O)N2CCCC2)C3)n1` [Example 44], the concentration for half-maximal inhibition (IC50) was 1 to 10 nM.
The value for `CCNC(=O)N1CCc2cnc(C(=O)Nc3cccc(-c4nnnn4C(C)C)n3)cc2C1` [Example 117] was 1 to 10 nM.
Consider `CC1NCCc2cc(F)c(C(=O)Nc3cccc(-c4nnnn4C(C)C)n3)cc21` (centres unmarked) [Example 68, 6-fluoro-N-(6-(1-isopropyl-1H-tetrazol-5-yl)pyridin-2-yl)-1-methyl-1,2,3,4-tetrahydroiso-quinoline-7-carboxamide], for which the IC50 was in the range of 100 to 1000 nM.
The value for `CC(C)n1nnnc1-c1cccc(NC(=O)c2cc3c(cc2F)CCN(C(=O)N2CCSCC2)C3)n1` [Example 105] was 10 to 100 nM.
Regarding `C[C@H](CO)n1nnnc1-c1cccc(NC(=O)c2cc3c(cn2)CCN(C(=O)c2ccc(F)cc2)C3)n1` [Example 121], the IC50 lay within 1 to 10 nM.
`C[C@H](CO)n1nnnc1-c1cccc(NC(=O)c2cc3c(cn2)CCN(C(=O)C2CCCC2)C3)n1` [Example 146, (R)-6-(cyclopentanecarbonyl)-N-(6-(1-(1-hydroxypropan-2-yl)-1H-tetrazol-5-yl)pyridin-2-yl)-5,6,7,8-tetrahydro-2,6-naphthyridine-3-carboxamide] yielded an IC50 of 1 to 10 nM.
In the case of `C[C@H](CO)n1nnnc1-c1cccc(NC(=O)c2cc3c(cn2)CCN(C(=O)NCCC(F)(F)F)C3)n1` [Example 183] it was 1 to 10 nM; in that of `CC(C)N1CCc2cnc(C(=O)Nc3cccc(-c4nnnn4[C@H](C)CO)n3)cc2C1` [Example 135], 10 to 100 nM; in that of `CC(C)n1nnnc1-c1cccc(NC(=O)c2cc3c(cn2)CCN(S(=O)(=O)CC2CC(F)(F)C2)C3)n1` [Example 139], 1 to 10 nM.
The value for `C[C@H](CO)n1nnnc1-c1cccc(NC(=O)c2cc3c(cn2)CCN(C)C3)n1` [Example 181] was 1 to 10 nM; that for `COCCC(=O)N1CCc2cnc(C(=O)Nc3cccc(-c4nnnn4[C@H](C)CO)n3)cc2C1` [Example 122] was 1 to 10 nM.
In turn, `COCCC(=O)N1CCc2cc(F)c(C(=O)Nc3cccc(-c4nncn4C(C)C)n3)cc2C1` [Example 24, 6-fluoro-N-(6-(4-isopropyl-4H-1,2,4-triazol-3-yl)pyridin-2-yl)-2-(3-methoxypropanoyl)-1,2,3,4-tetrahydroisoquinoline-7-carboxamide] yielded a concentration for half-maximal inhibition (IC50) of 1 to 10 nM.
The value for `C=CCCOC(=O)N1CCc2ccc(C(=O)Nc3cccc(-c4nncn4C(C)C)n3)cc2C1` [Example 64] was 10 to 100 nM; that for `CCN1CCc2cnc(C(=O)Nc3cccc(-c4nnnn4[C@H](C)CO)n3)cc2C1` [Example 136] was 10 to 100 nM; that for “2-(N,N-dimethylsulfamoyl)-N-(6-(4-isopropyl-4H-1,2,4-triazol-3-yl)pyridin-2-yl)isoindoline-5-carboxamide [Example 10]” was greater than 1000 nM.
In the case of `CCCCNC(=O)N1CCc2ccc(C(=O)Nc3cccc(-c4nncn4C(C)C)n3)cc2C1` [Example 62] it was 1 to 10 nM; in that of `CC(C)n1cnnc1-c1cccc(NC(=O)c2ccc3c(c2)CNCC3)n1` [Example 37, N-(6-(4-isopropyl-4H-1,2,4-triazol-3-yl)pyridin-2-yl)-1,2,3,4-tetrahydroisoquinoline-7-carboxamide], 100 to 1000 nM.
Compound `C[C@H](CO)n1nnnc1-c1cccc(NC(=O)c2cc3c(cc2F)CCN(S(=O)(=O)CCC(F)(F)F)C3)n1` [Example 82] returned an IC50 of 1 to 10 nM.
`C=CCNC(=O)N1CCc2ccc(C(=O)Nc3cccc(-c4nncn4C(C)C)n3)cc2C1` [Example 33]: the IC50 lay in the range of 10 to 100 nM.
On to `CC(C)n1cnnc1-c1cccc(NC(=O)c2cc3c(cc2F)CCN(S(=O)(=O)CCC(F)(F)F)C3)n1` [Example 46], for which the IC50 is 1 to 10 nM.
In the case of `CC(C)n1cnnc1-c1cccc(NC(=O)c2ccc3c(c2)CN(C(=O)OCCF)CC3)n1` [Example 65], the IC50 was in the range of 10 to 100 nM.
Consider `CC(C)n1cnnc1-c1cccc(NC(=O)c2ccc3c(c2)CN(C(=O)OCc2ccccc2)C3)n1` [Example 3, benzyl 5-((6-(4-isopropyl-4H-1,2,4-triazol-3-yl)pyridin-2-yl)carbamoyl)isoindoline-2-carboxylate], for which the 50% inhibitory concentration (IC50) is 10 to 100 nM.
The value for `CC(C)n1nnnc1-c1cccc(NC(=O)c2cc3c(cn2)CCN(C(=O)N(C)CCC(F)(F)F)C3)n1` [Example 114] was 10 to 100 nM; that for `CC(C)n1nnnc1-c1cccc(NC(=O)c2cc3c(cn2)CCN(C(=O)C2CCCC2)C3)n1` [Example 119] was 1 to 10 nM.
